In article PMC11050599, “Novel Tetracyclic Azaphenothiazines with the Quinoline Ring as New Anticancer and Antibacterial Derivatives of Chlorpromazine” (International Journal of Molecular Sciences, 2024):
Converted amounts (≈) assume the structure as drawn.

How the values were obtained:
HCT116 cells = experiment: Annexin V-FITC/PI apoptosis flow cytometry, HCT116; assay type: cell-based, human
HCT116 (colon cancer) = experiment: MTT assay, HCT116 cells; assay type: cell-based, human
How it was run: (§1)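 HCT116 grew in MEM, PC3 in RPMI and MDA-MB-231 and HaCaT in high-glucose DMEM, all supplemented with 10% FBS and 20 mM HEPES. Compounds were incubated with 1 × 10^4 cells per well for 72 h, and viability was derived from MTT absorbance against untreated cells.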

[1] = system: MDA-MB-231 (breast cancer); experiment: MTT assay, MDA-MB-231 cells; assay type: cell-based, human
How it was run: as §1

A549 (lung cancer) = experiment: MTT assay, A549 cells; assay type: cell-based, human
How it was run: (§2)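 After a 72 h incubation of 1 × 10^4 cells per well with compound, absorbance from MTT reduction was converted to percent of the medium-only control.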

S. aureus NCTC 4163 = experiment: MIC broth microdilution; assay type: cell-based; conditions: 19 h, 35 °C
How it was run: (§3)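 Two-fold serial broth microdilution in Mueller-Hinton II broth, final inoculum adjusted to […]. Compounds dissolved in DMSO, final solvent at most 1%.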

[2] = system: S. epidermidis ATCC 12228; experiment: MIC broth microdilution; assay type: cell-based; conditions: Staphylococcus epidermidis, ATCC12228; 19 h, 35 °C; read-out: MIC S. epidermidis ATCC 12228
How it was run: as §3

P. aeruginosa ATCC 15442 = experiment: MIC broth microdilution; assay type: cell-based; conditions: Pseudomonas aeruginosa, ATCC15442; 19 h, 35 °C; read-out: MIC P. aeruginosa ATCC 15442
How it was run: as §3

S. aureus ATCC 29213 = experiment: MIC broth microdilution; assay type: cell-based; conditions: Staphylococcus aureus, ATCC29213; 19 h, 35 °C; read-out: MIC S. aureus ATCC 29213
How it was run: as §3

S. aureus ATCC 25923 = experiment: MIC broth microdilution; assay type: cell-based; conditions: Staphylococcus aureus, ATCC25923; 19 h, 35 °C; read-out: MIC S. aureus ATCC 25923
How it was run: as §3

E. coli ATCC 25922 = experiment: MIC broth microdilution; assay type: cell-based; conditions: Escherichia coli, ATCC25922; 19 h, 35 °C; read-out: MIC E. coli ATCC 25922
How it was run: as §3

S. aureus ATCC 6538 = experiment: MIC broth microdilution; assay type: cell-based; conditions: Staphylococcus aureus, ATCC6538; 19 h, 35 °C; read-out: MIC S. aureus ATCC 6538
How it was run: as §3

[3] = system: S. epidermidis ATCC 35984; experiment: MIC broth microdilution; assay type: cell-based; conditions: Staphylococcus epidermidis, ATCC35984; 19 h, 35 °C; read-out: MIC S. epidermidis ATCC 35984
How it was run: as §3

[4] = system: MiaPaCa-2 (pancreas cancer); experiment: MTT assay, MiaPaCa-2 cells; assay type: cell-based, human
How it was run: as §2

PC3 (prostate cancer) = experiment: MTT assay, PC3 cells; assay type: cell-based, human
How it was run: as §1

[5] = system: HaCaT (immortalized human keratinocytes); experiment: MTT assay, HaCaT normal cells; assay type: cell-based; conditions: Homo sapiens, HaCaT; MTT, 72 h, normal cells; read-out: IC50 HaCaT (Table 3)
How it was run: as §1

[6] = representative dot plot, Figure 4C, IC50, 72 h
[7] = SI = IC50 for normal cell line (HaCaT)/IC50 cancer cell line

## CN1CCCCC1CCN1c2cc(Cl)ccc2Sc2cc3ccccc3nc21 (stereo not shown) [Compound 11, 8-Chloro-6-(2-(1-methylpiperidin-2-yl)ethyl)-quino[3,2-b]benzo[1,4]thiazine]
HCT116 cells; compound at IC50, 72 h
  cells in late apoptosis/necrosis, HCT116: 15.64%
HCT116 cells; [6]
  HCT-116: Alive: 80.61%
  HCT-116: Early Apoptotic: 4.12%
  HCT-116: Necrotic: 9.25%
  HCT-116: Necrotic/Late Apoptotic: 6.03%
HCT116 (colon cancer); Homo sapiens, HCT-116, MTT, 72 h, read-out: IC50 HCT116
  IC50: 7.7 ± 1.2 µM
HCT116 (colon cancer); [7]
  SI HCT116: 1.6
[1]; Homo sapiens, MDA-MB-231, MTT, 72 h, MDA-MB231, read-out: IC50 MDA
  IC50: 16.7 ± 1.1 µM
[1]; [7]
  SI MDA: 0.9
A549 (lung cancer); Homo sapiens, A549, MTT, 72 h, mean SD, read-out: IC50 A549
  IC50: 16 ± 4.2 µM
A549 (lung cancer); [7]
  SI A549: 1
S. aureus NCTC 4163
  MIC S. aureus NCTC 4163: 8 µg/mL (≈ 19.5 µM)
S. aureus NCTC 4163; Staphylococcus aureus, NCTC4163, read-out: MIC S. aureus NCTC 4163
  MIC: 8 µg/mL (≈ 19.5 µM)
[2]
  MIC: 256 µg/mL (≈ 624 µM)
P. aeruginosa ATCC 15442
  MIC: > 256 µg/mL
S. aureus ATCC 29213
  MIC: 128 µg/mL (≈ 312 µM)
S. aureus ATCC 25923
  MIC: 128 µg/mL (≈ 312 µM)
E. coli ATCC 25922
  MIC: > 256 µg/mL
S. aureus ATCC 6538
  MIC: 128 µg/mL (≈ 312 µM)
[3]
  MIC: 256 µg/mL (≈ 624 µM)
[4]; Homo sapiens, MIA PaCa-2, MTT, 72 h, read-out: IC50 MiaPaCa-2
  IC50: 24.3 ± 3.5 µM
[4]; [7]
  SI MiaPaCa-2: 0.5
PC3 (prostate cancer); Homo sapiens, PC-3, MTT, 72 h, read-out: IC50 PC3
  IC50: 16.7 ± 1.8 µM
PC3 (prostate cancer); [7]
  SI PC3: 0.7
[5]
  IC50: 12.7 ± 1.9 µM
